From patent US20180099931A1 (AbbVie S.à.r.l., priority 2016, published 2018)
Read-outs that look alike come from different tables or passages of the source.

Target: T1, F508delCFTR (Homo sapiens, UniProt P13569, DEL508-508)
T1 construct: expressed in transfected cells; host or cells: CFBE41o- human lung-derived epithelial cells (CFBE4lo-F508delCFTR-HRP), doxycycline-inducible
Assay: Cell Surface Expression-Horse Radish Peroxidase (CSE-HRP) Assay;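 on Maximum % activity (with co-corrector): co-corrector and positive control are both the same reference corrector at 2 µM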;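 on Maximum % activity (without co-corrector): percent of the 2 µM on-plate positive control corrector response above DMSO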
Assay type: cell-based
Conditions: for Maximum % activity (with co-corrector) / Emax: maximum at any tested concentration, normalized to on-plate positive control; for Emax: read-out: Maximum % activity (without co-corrector)
Method: Cell Surface Expression-Horse Radish Peroxidase (CSE-HRP) Assay;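 on Maximum % activity (with co-corrector): co-corrector and positive control are both the same reference corrector at 2 µM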;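 on Maximum % activity (without co-corrector): percent of the 2 µM on-plate positive control corrector response above DMSO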
The development was achieved by expressing the F508delCFTR mutation along with a horseradish peroxidase (HRP) in the fourth exofacial loop, and then measuring the HRP activity using luminescence readout from these cells, CFBE4lo-F508delCFTR-HRP, that were incubated overnight with the test corrector compounds, either without or with the co-corrector. […] The test compounds were then added either without or with a co-corrector at the required concentrations and further incubated for 18-24 hours at 33° C. The highest concentration tested was 20 μM with an 8-point concentration response curve using a 3-fold dilution in both the test compound without or with the co-corrector. Three replicate plates were run to determine one EC50. All plates contained negative controls (dimethyl sulfoxide, DMSO) and positive control (2 μM of 3-[(2R,4R)-4-({[1-(2,2-difluoro-1,3-benzodioxol-5-yl)cyclopropyl]carbonyl}amino)-7-methoxy-3,4-dihydro-2H-chromen-2-yl]benzoic acid) as well as on-plate concentration response of the positive control. […] The raw counts from the experiment were analyzed using Accelrys® Assay Explorer v3.3.
1−[3*SDPositive Control+3*SDNegative Control/Absolute(MeanPositive Control−MeanNegative Control)]
wherein “SD” is standard deviation.
The % activity measured at each of the 8 test concentrations of the test compound added either without or with a co-corrector (2 μM of 3-[(2R,4R)-4-({[1-(2,2-difluoro-1,3-benzodioxol-5-yl)cyclopropyl]carbonyl}amino)-7-methoxy-3,4-dihydro-2H-chromen-2-yl]benzoic acid) was normalized to the on-plate positive control using the following formulae:
% activity(Test compound without co-corrector)=[(test compound without co-corrector response−DMSO response)/(positive control response−DMSO response)]*100
% activity(Test compound with co-corrector)=[(test compound with co-corrector response−DMSO response)/(positive control response−DMSO response)]*100
The maximum % activity achieved for the test compound either without or with a co-corrector at any tested concentration is presented in Table 4 along with the respective EC50's calculated using the following general sigmoidal curve with variable Hill slope equation (described as Model 42 in the Accelrys® Assay Explorer v3.3 software):
General sigmoidal curve with concentration, response, top, bottom, EC50 and Hill slope. This model describes a sigmoidal curve with an adjustable baseline, a. The equation can be used to fit curves where response is either increasing or decreasing with respect to the independent variable, “x”.
“x” is a concentration of drug under test. “y” is the response. “a” is the maximum response, and “d” is the minimum response “c” is the inflection point (EC50) for the curve. That is, “y” is halfway between the lower and upper asymptotes when x=c. “b” is the slope-factor or Hill coefficient. The sign of b is positive when the response increases with increasing dose and is negative when the response decreases with increasing dose (inhibition).

[1] = CSE-HRP, test compound without co-corrector, read-out: EC50 (without co-corrector)
[2] = CSE-HRP, with co-corrector (2 μM of 3-[(2R,4R)-4-({[1-(2,2-difluoro-1,3-benzodioxol-5-yl)cyclopropyl]carbonyl}amino)-7-methoxy-3,4-dihydro-2H-chromen-2-yl]benzoic acid), read-out: EC50 (with co-corrector)
[3] = CSE-HRP, with co-corrector (2 μM)
[4] = test compound without co-corrector
[5] = test compound without co-corrector, read-out: EC50 (without co-corrector)
[6] = with co-corrector (2 μM of 3-[(2R,4R)-4-({[1-(2,2-difluoro-1,3-benzodioxol-5-yl)cyclopropyl]carbonyl}amino)-7-methoxy-3,4-dihydro-2H-chromen-2-yl]benzoic acid)
[7] = with co-corrector (2 μM of 3-[(2R,4R)-4-({[1-(2,2-difluoro-1,3-benzodioxol-5-yl)cyclopropyl]carbonyl}amino)-7-methoxy-3,4-dihydro-2H-chromen-2-yl]benzoic acid), read-out: EC50 (with co-corrector)

T1 sequence (P13569 with tags, fused parts or gaps DEL508-508): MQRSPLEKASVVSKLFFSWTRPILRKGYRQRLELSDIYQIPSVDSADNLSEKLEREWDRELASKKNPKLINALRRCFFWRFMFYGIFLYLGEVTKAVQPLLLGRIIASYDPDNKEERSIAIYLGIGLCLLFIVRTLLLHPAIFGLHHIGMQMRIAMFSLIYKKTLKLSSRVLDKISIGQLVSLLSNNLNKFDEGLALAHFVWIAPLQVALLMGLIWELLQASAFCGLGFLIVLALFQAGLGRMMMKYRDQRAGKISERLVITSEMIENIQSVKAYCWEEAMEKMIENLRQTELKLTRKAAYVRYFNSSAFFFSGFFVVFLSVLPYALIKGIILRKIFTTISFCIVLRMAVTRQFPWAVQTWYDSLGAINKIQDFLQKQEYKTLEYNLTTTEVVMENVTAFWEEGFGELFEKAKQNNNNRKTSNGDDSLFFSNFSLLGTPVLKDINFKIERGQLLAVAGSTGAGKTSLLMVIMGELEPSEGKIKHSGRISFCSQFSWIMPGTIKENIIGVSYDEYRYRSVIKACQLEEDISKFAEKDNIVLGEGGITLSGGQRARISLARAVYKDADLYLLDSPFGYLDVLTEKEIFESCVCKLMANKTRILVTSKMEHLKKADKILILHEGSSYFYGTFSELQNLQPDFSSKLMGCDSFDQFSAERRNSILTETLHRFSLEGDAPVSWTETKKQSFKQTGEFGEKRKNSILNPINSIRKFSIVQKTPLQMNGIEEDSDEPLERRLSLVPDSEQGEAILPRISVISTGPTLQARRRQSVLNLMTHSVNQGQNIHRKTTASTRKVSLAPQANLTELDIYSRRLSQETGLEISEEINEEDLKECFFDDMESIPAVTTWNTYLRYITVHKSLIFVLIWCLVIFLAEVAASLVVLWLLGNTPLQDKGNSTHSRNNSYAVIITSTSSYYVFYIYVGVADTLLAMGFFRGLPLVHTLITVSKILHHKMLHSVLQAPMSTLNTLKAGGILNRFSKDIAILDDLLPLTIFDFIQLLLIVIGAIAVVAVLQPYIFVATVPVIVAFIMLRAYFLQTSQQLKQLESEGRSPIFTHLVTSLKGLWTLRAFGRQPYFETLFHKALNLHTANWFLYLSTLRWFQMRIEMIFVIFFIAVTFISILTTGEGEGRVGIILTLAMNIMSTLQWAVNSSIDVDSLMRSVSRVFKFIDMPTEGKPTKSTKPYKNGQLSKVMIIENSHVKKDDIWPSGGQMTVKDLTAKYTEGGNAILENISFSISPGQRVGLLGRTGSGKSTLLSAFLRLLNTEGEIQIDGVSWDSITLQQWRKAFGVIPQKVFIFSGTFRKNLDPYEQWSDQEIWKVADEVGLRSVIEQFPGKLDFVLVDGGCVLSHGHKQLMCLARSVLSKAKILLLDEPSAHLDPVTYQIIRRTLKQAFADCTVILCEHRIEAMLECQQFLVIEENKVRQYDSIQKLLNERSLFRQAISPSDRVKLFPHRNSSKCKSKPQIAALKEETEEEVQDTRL

| Compound | EC50 [1] | EC50 [2] | Maximum % activity (with co-corrector) [3] | Emax (CSE-HRP, without co-corrector) | Emax [4] | EC50 [5] | Maximum % activity (with co-corrector) [6] | EC50 [7] | Maximum % activity (with co-corrector) (with co-corrector (2 μM)) | Emax (without co-corrector) |
| --- | --- | --- | --- | --- | --- | --- | --- | --- | --- | --- |
| COc1ncc(C2(C)CC2(F)F)cc1CN[C@H]1[C@H](C(C)(C)C)[C@@H](C(=O)O)N(C(=O)C2CCCCC2)[C@H]1c1ccccc1 (stereo partly drawn) [II-422] | – | – | – | – | 100 to 200% | < 1000 nM | +++ (≥350) | < 1000 nM | – | – |
| COc1ccc(C(C)(C)C)cc1CN[C@H]1[C@H](C(C)(C)C)[C@@H](C(=O)O)N(C(=O)[C@@H]2CCCCO2)[C@H]1c1cccnc1OC [Example I-209] | – | – | – | – | – | 1000 to 10000 nM | – | 1000 to 10000 nM | +++ (≥350) | > 200% |
| COc1ccc(C(C)(C)C)cc1CN[C@H]1[C@H](C(C)(C)C)[C@@H](C(=O)O)N(C(=O)[C@@H](C)[C@@H]2CCCCO2)[C@H]1c1ccccc1 (relative stereo) [Example I-195] | – | – | – | – | – | 1000 to 10000 nM | – | 1000 to 10000 nM | +++ (≥350) | > 200% |
| COc1ccc(C(C)(C)C)cc1CN[C@H]1[C@H](C(C)(C)C)[C@@H](C(=O)O)N(C(=O)C(OC)c2ccc(F)c(F)c2)[C@H]1c1ccccc1 (relative stereo) [Example I-159] | – | – | – | – | – | < 1000 nM | – | < 1000 nM | +++ (≥350) | > 200% |
| COc1ncc(C2CCC2)cc1CN[C@H]1[C@H](C(C)(C)C)[C@@H](C(=O)O)N(C(=O)[C@@H]2CCCCO2)[C@H]1c1ccccc1C1CC1 [Example I-296] | 1000 to 10000 nM | 1000 to 10000 nM | +++ (≥350) | > 200% | – | – | – | – | – | – |
| COc1ccc(C(C)(C)C)cc1CN[C@H]1[C@H](C(C)(C)C)[C@@H](C(=O)O)N(C(=O)[C@@H]2CCCCO2)[C@H]1c1ccccc1F [II-460] | – | – | – | – | > 200% | 1000 to 10000 nM | +++ (≥350) | < 1000 nM | – | – |
| CC(C)(C)[C@H]1[C@H](NCc2cc(Cl)ccc2Cl)[C@H](c2ccccc2)N(C(=O)C2CCCCC2)[C@@H]1C(=O)O [II-105] | 1000 to 10000 nM | 1000 to 10000 nM | +++ (≥350) | < 100% | – | – | – | – | – | – |
| Cc1cc(CN[C@H]2[C@H](C(C)(C)C)[C@@H](C(=O)O)N(C(=O)C3CCCCC3)[C@H]2c2ccccc2)cc(C)c1OC(F)F [III-141] | – | – | – | – | < 100% | 1000 to 10000 nM | – | 1000 to 10000 nM | ++ (≥150 and <350) | – |
| COc1ccc(C(C)(C)C)cc1CN[C@H]1[C@H](C(C)(C)C)[C@@H](C(=O)O)N(C(=O)[C@@H]2OCC[C@@H]2c2ccccc2)[C@H]1c1ccccc1 (relative stereo) [Example I-178] | – | – | – | – | – | 1000 to 10000 nM | – | 1000 to 10000 nM | +++ (≥350) | 100 to 200% |

Other lines, results leading:

| EC50 [1] | EC50 [2] | Maximum % activity (with co-corrector) [3] | Emax (CSE-HRP, without co-corrector) | Emax [4] | EC50 [5] | Maximum % activity (with co-corrector) [6] | EC50 [7] | Maximum % activity (with co-corrector) (with co-corrector (2 μM)) | Emax (without co-corrector) | Compound |
| --- | --- | --- | --- | --- | --- | --- | --- | --- | --- | --- |
| 1000 to 10000 nM | 1000 to 10000 nM | +++ (≥350) | > 200% | – | – | – | – | – | – | COc1cc(C(F)(F)F)ccc1CN[C@H]1[C@H](C(C)(C)C)[C@@H](C(=O)O)N(C(=O)OC(C)C)[C@H]1c1ccccc1OC [II-134] |
| – | – | – | – | 100 to 200% | < 1000 nM | +++ (≥350) | < 1000 nM | – | – | COc1cnc(-c2ccc(C)cc2F)cc1CN[C@H]1[C@H](C(C)(C)C)[C@@H](C(=O)O)N(C(=O)C2CCCCC2)[C@H]1c1ccccc1 [II-416] |
| 1000 to 10000 nM | < 1000 nM | +++ (≥350) | > 200% | – | – | – | – | – | – | COc1ccc(C(C)(C)C)cc1CN[C@H]1[C@H](C(C)(C)C)[C@@H](C(=O)O)N(C(=O)CC2CC(=O)c3ccccc32)[C@H]1c1ccccc1 (stereo partly drawn) [II-217] |
| 1000 to 10000 nM | 1000 to 10000 nM | +++ (≥350) | 100 to 200% | – | – | – | – | – | – | CCOc1ccc(Br)cc1CN[C@H]1[C@H](C(C)(C)C)[C@@H](C(=O)O)N(C(=O)OC(C)C)[C@H]1c1cccnc1N1CCC1 [Example I-274] |
| – | – | – | – | 100 to 200% | 1000 to 10000 nM | +++ (≥350) | 1000 to 10000 nM | – | – | COc1ncc(C2(C)CC2)cc1CN[C@H]1[C@H](C(C)(C)C)[C@@H](C(=O)O)N(C(=O)C2CCCCC2)[C@H]1c1ccccc1 [II-440] |
| 1000 to 10000 nM | 1000 to 10000 nM | +++ (≥350) | 100 to 200% | – | – | – | – | – | – | COc1ccc(C(C)(C)C)cc1CN[C@H]1[C@H](C(C)(C)C)[C@@H](C(=O)O)N(C(=O)C2CCC(C#N)CC2)[C@H]1c1ccccc1 (stereo partly drawn) [II-175] |
| – | – | – | – | > 200% | < 1000 nM | +++ (≥350) | < 1000 nM | – | – | COc1ccc(C(C)(C)C)cc1CN[C@H]1[C@H](C(C)(C)C)[C@@H](C(=O)O)N(C(=O)OCC(C)(C)C)[C@H]1c1ccccc1 [II-392] |
| – | – | – | – | < 100% | 1000 to 10000 nM | +++ (≥350) | 1000 to 10000 nM | – | – | COc1ncc(-c2cccnc2)cc1CN[C@H]1[C@H](C(C)(C)C)[C@@H](C(=O)O)N(C(=O)C2CCCCC2)[C@H]1c1ccccc1 [II-345] |
| 1000 to 10000 nM | 1000 to 10000 nM | +++ (≥350) | > 200% | – | – | – | – | – | – | COc1ccc(C(C)(C)C)cc1CN[C@H]1[C@H](C(C)(C)C)[C@@H](C(=O)O)N(C(=O)CC2CCCO2)[C@H]1c1ccccc1 (stereo partly drawn) [II-235] |
| 1000 to 10000 nM | 1000 to 10000 nM | +++ (≥350) | > 200% | – | – | – | – | – | – | COc1cc(Cl)ccc1CN[C@@H]1[C@@H](C(C)(C)C)[C@H](C(=O)O)N(C(=O)OC(C)C)[C@@H]1c1ccccc1 (racemic) [II-45] |
| – | – | – | – | – | 1000 to 10000 nM | – | < 1000 nM | +++ (≥350) | > 200% | COc1ccc(C(C)(C)C)cc1CN[C@H]1[C@H](C(C)(C)C)[C@@H](C(=O)O)N(C(=O)[C@@H]2CCCO2)[C@H]1c1ccccc1C(C)C [Example 104, (2S,3S,4S,5S)-3-tert-butyl-4-{[(5-tert-butyl-2-methoxyphenyl)methyl]amino}-1-[(2S)-oxolane-2-carbonyl]-5-[2-(propan-2-yl)phenyl]pyrrolidine-2-carboxylic acid] |
| – | – | – | – | < 100% | > 10000 nM | ++ (≥150 and <350) | 1000 to 10000 nM | – | – | COc1ccc(C(F)(F)F)cc1CN[C@@H]1[C@@H](C(C)(C)C)[C@H](C(=O)O)N(C(=O)[C@H](OC)c2ccccc2)[C@@H]1c1ccccc1 [III-68] |
